Data as given in PubChem BioAssay (NCI).
Values joined by “and” are separate entries in the source; they are usually repeats but may differ in a detail not shown here. Identical values can stand only once.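 Method: 48-hour compound exposure of cells in 96-well plates, five concentrations, linear interpolation of endpoints. GI50 = concentration required for 50% inhibition of growth. Definition used: TGI = concentration required for complete inhibition of growth.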

Columns and labels:
Assay in all cases: NCI anticancer screen, dose series, 48 h
[1] = system: MALME-3M melanoma
[2] = system: SNB-75 CNS
[3] = system: SK-MEL-5 melanoma
[4] = system: IGROV1 ovarian
[5] = system: SK-MEL-28 melanoma

Structure (SMILES)	TGI [1]	TGI [2]	TGI [3]	TGI [4]	TGI [5]	GI50 [1]	GI50 [2]	GI50 [3]
CC(C)Oc1c(-c2ccc(F)cc2)c(O)c2c3c1oc(=O)n3C=CC2C (configuration not stated)	91.1 µM	31.3 µM	22.9 µM	29.2 µM	30.9 µM			
C=C1C[C@H](O)[C@H](Br)C(C)(C)C12CCC(C)(Cl)C(Br)C2 (some centres not stated)	16.6 µM	11.2 µM	12.2 µM	18.8 µM	19 µM			
COc1ccc2nc3cccc([N+](=O)[O-])c3c(NCCCO)c2c1	0.00344 µM and 0.0202 µM	0.0482 µM and 0.263 µM	0.00431 µM	0.0313 µM and 0.29 µM		0.00116 µM	0.0151 µM and 0.0535 µM	
OC1CSc2nc3ccccc3n2C1 (configuration not stated)	> 100 µM	44.8 µM	> 100 µM	> 100 µM				
CCOC1CC(C)N(C(=O)c2ccccc2)O1 (configuration not stated)			> 100 µM	> 100 µM	> 100 µM			
c1ccc(CSC2(SCc3ccccc3)CCCCC2)cc1	> 10 µM	> 10 µM	> 10 µM	> 10 µM	> 10 µM			
CCOc1cc2c(c(OCC)c1O)CC[C@@H]1[C@@H]2CC[C@]2(C)[C@@H](O)CC[C@@H]12	66.4 µM	10.6 µM	21.5 µM	> 100 µM				
COc1ccc(-c2oc3c(OC)c(OC)cc(O)c3c(=O)c2OC)cc1	> 100 µM		> 100 µM	> 100 µM	> 100 µM			
CC(=O)N(C(C)=O)c1cc2c3c(c1)CCCN3CCC2	> 10 µM	> 10 µM	> 10 µM	> 10 µM	> 10 µM			
CCOC(=O)c1nc2ccc(C(F)(F)F)cc2nc1Oc1ccc(C(=O)OC)cc1		> 100 µM	> 100 µM	> 100 µM	> 100 µM			
Cc1ccc(N(C)S(=O)(=O)c2ccccc2[N+](=O)[O-])cc1	> 100 µM				> 100 µM			
Cc1cnc2[nH]c(-c3ccc4ccccc4c3)cc(=O)c2c1		> 100 µM	> 100 µM	> 100 µM	> 100 µM			0.359 µM
Cc1ccc(Nc2nc3c(=O)n(C)c(=O)n(C)c3nc2Nc2ccc(C)cc2)cc1	28.6 µM	35.2 µM	31 µM	29.8 µM	30.8 µM			
CC1(C)N=C(C2CCCN2C(=O)OCc2ccccc2)OC1=O (configuration not stated)	> 100 µM	> 100 µM	> 100 µM	> 100 µM	> 100 µM			
N#Cc1c(-c2ccccc2)c(CN2CCCCC2)c(=O)n2c1[nH]c1ccccc12	> 100 µM	> 100 µM	34.1 µM	> 100 µM	> 100 µM			
CCOC(=O)c1c(NC(=S)Nc2ccccc2)sc2c1CCOC2	> 100 µM	62.1 µM	> 100 µM	> 100 µM	> 100 µM			
O=c1oc2c(Cl)cc(Cl)cc2cc1C1=CSC2=NCCN12		> 100 µM	88.8 µM	> 100 µM	> 100 µM			

Structure (SMILES)	TGI [1]	TGI [2]	TGI [3]	TGI [4]	TGI [5]	GI50 [1]	GI50 [2]	GI50 [3]
Cc1nc2sccn2c1/C=C1/C(=O)Nc2cccc(Cl)c21	> 100 µM	> 100 µM	> 100 µM	> 100 µM	> 100 µM			
CC(=O)OC(C)(C)CCC(=O)[C@](C)(O)[C@H]1[C@H](O)C[C@@]2(C)[C@@H]3CCc4c(cc(OC5OC(CO)C(O)C(O)C5O)c(O)c4C)C3(C)C(=O)C[C@]12C (some centres not stated)	> 100 µM	> 100 µM	> 100 µM	> 100 µM	> 100 µM			
O=C1CC(NCc2ccccc2)c2c(Cl)sc(Cl)c21 (configuration not stated)	44.4 µM	80.6 µM	> 100 µM	> 64.6 µM	76.7 µM			
O=C1CC(=O)NC(=NNS(=O)(=O)c2ccc(Cl)cc2)N1	> 100 µM	> 100 µM	> 100 µM	> 100 µM	> 100 µM			
CCO/C=N/C1=C(C#N)SC2=N/C(=C\c3ccccc3)C(=O)N21	> 100 µM	> 100 µM	> 100 µM	> 100 µM	> 100 µM			
O=C(c1cc2c(c3ccccc13)NC1(CCCCC1)N=C2C(F)(F)F)C(F)(F)F	17.4 µM	19.1 µM	18.2 µM	17.3 µM	22.6 µM			
Cn1cc(-c2csc(-c3cn(C)c4ccccc34)n2)c2ccccc21	70 µM		> 100 µM	> 100 µM	> 100 µM			
CCOC(=O)/C=C(/C)Nc1nc2c(c(C(=O)OC)c1C#N)CCCC2	> 100 µM		> 100 µM	> 100 µM	> 100 µM			
CC[C@@]1(O)C(=O)OCc2c1cc1n(c2=O)Cc2c-1nc1ccccc1c2/C=N/NC(=O)c1ccc(N)cc1	> 87.8 µM		1.1 µM		> 100 µM			
COc1cccc(/C=C2\S/C(=N/Nc3nc(-c4ccc([N+](=O)[O-])cc4)cs3)NC2=O)c1O	42.3 µM		25.5 µM	27.1 µM	39.5 µM			
Cc1cc(S(=O)(=O)/N=C(\[N-]S(=O)(=O)c2cc(Cl)sc2Cl)[n+]2ccc(N(C)C)cc2)c(S)cc1Cl			> 100 µM	> 100 µM	> 100 µM			
COc1ccc(/C=C2\C[C@H]3[C@@H]4CCC5=CC(=O)CC[C@]5(C)[C@H]4CC[C@]3(C)C2=O)cc1OC	> 100 µM	> 100 µM	5.45 µM	> 100 µM	> 100 µM			
Cc1ccc(C(=O)N/N=C(\N=Nc2ccc(C(=O)O)cc2)c2ccc(N(CCC#N)CCC#N)cc2C)cc1		> 100 µM	> 100 µM		> 100 µM			
O=C(N/N=C/c1ccccc1)c1cccc2nc3ccccc3nc12	> 100 µM	> 100 µM	18 µM	> 100 µM	> 100 µM			
CCCCCCCCCCCCCCCCCCOCC(O)COP(=O)(O)OCC1OC(n2ccc(N)nc2=O)C(O)C1O (configuration not stated)	> 100 µM	28.7 µM	> 100 µM	28.5 µM	> 100 µM			
COc1cc(OC)c2[nH]c3c(O)c(-c4c(C)cc5c([nH]c6c(OC)cc(OC)cc65)c4O)c(C)cc3c2c1		15.5 µM	15.2 µM	13.7 µM	19.5 µM			8.38 µM
O=C(c1ccccc1)N1C(=S)N(c2ccccn2)C(=Nc2ccccc2)C1=Nc1ccccc1	53.4 µM	> 100 µM	> 50 µM	> 64.1 µM	> 100 µM			
